Measured values as given in ChEMBL document CHEMBL1152560, “Substituted 2-arylbenzothiazoles as kinase inhibitors: hit-to-lead optimization” (Bioorg Med Chem, 2009).

Experiments:
[1] = biological target: Serine/threonine-protein kinase Chk2 (Homo sapiens) (UniProt O96017); assay: Residual activity of CHK2 at 1 uM by microplate scintillation counting
[2] = biological target: Mitogen-activated protein kinase 10 (Homo sapiens) (UniProt P53779); assay: Residual activity of JNK3 at 1 uM by microplate scintillation counting
Chain of Mitogen-activated protein kinase 10 (Homo sapiens) (P53779 whole entry): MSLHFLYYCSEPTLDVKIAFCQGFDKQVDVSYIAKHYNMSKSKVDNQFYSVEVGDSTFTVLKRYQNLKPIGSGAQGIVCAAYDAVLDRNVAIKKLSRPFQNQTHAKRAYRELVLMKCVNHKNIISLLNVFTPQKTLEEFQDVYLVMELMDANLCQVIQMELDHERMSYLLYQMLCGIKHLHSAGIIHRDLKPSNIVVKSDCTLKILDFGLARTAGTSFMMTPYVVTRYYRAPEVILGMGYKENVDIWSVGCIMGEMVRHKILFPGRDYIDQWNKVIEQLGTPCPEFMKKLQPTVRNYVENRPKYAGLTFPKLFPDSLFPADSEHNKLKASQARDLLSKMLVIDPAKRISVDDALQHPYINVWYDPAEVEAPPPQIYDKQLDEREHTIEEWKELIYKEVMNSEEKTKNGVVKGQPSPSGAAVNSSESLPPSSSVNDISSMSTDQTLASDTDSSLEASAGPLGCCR

[3] = biological target: Ribosomal protein S6 kinase alpha-4 (Homo sapiens) (UniProt O75676); assay: Residual activity of RPS6KA4 at 1 uM by microplate scintillation counting
Chain of Ribosomal protein S6 kinase alpha-4 (Homo sapiens) (O75676 whole entry, looked up): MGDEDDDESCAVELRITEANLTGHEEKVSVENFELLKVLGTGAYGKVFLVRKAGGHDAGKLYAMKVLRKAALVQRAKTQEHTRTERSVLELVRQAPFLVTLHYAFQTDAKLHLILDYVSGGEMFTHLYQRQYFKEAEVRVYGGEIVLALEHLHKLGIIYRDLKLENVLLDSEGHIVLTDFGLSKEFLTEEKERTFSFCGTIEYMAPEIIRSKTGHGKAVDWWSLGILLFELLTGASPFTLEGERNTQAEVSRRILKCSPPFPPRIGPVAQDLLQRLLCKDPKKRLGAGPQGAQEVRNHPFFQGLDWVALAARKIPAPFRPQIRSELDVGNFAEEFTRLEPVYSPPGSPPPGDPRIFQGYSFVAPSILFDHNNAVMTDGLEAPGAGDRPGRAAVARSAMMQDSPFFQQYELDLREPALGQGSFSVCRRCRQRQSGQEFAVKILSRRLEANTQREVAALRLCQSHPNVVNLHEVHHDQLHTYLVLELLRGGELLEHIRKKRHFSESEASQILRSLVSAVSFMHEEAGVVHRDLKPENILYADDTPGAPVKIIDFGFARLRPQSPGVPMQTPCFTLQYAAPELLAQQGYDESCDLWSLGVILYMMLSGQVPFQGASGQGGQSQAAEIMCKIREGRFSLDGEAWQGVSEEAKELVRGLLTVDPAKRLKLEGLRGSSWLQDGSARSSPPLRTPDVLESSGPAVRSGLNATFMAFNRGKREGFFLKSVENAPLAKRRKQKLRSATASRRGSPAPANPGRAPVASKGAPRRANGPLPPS

[4] = biological target: Tyrosine-protein kinase SYK (Homo sapiens) (UniProt P43405); assay: Residual activity of SYK at 1 uM by microplate scintillation counting
[5] = biological target: T1, Serine/threonine-protein kinase DCLK2 (Homo sapiens) (UniProt Q8N568); assay: Residual activity of DCAMKL2 at 10 uM by microplate scintillation counting
T1 sequence (whole entry): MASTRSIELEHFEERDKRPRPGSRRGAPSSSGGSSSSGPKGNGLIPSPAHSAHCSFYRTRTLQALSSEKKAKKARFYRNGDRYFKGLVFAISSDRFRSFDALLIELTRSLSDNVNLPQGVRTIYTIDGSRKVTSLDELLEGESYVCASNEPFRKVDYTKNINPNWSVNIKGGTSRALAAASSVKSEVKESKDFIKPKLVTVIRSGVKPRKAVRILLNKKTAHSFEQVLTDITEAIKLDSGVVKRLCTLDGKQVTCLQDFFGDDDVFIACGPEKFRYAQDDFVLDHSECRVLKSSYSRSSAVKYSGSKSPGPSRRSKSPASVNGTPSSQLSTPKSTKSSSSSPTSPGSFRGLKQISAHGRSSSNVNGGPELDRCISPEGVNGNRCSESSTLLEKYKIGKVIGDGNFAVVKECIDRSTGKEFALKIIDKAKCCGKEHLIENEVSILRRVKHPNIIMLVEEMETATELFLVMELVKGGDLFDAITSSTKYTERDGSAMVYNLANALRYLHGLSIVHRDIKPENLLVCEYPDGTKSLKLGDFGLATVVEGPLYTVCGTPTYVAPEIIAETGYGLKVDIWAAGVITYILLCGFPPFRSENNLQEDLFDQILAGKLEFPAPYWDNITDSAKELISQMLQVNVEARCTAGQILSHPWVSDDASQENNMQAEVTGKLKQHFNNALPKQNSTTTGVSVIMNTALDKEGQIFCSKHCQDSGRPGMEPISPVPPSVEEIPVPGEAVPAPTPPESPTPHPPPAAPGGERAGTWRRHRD

[6] = biological target: Fibroblast growth factor receptor 4 (Homo sapiens) (UniProt P22455); assay: Residual activity of FGFR4 at 10 uM by microplate scintillation counting
Chain of Fibroblast growth factor receptor 4 (Homo sapiens) (P22455 22-802 limits assumed): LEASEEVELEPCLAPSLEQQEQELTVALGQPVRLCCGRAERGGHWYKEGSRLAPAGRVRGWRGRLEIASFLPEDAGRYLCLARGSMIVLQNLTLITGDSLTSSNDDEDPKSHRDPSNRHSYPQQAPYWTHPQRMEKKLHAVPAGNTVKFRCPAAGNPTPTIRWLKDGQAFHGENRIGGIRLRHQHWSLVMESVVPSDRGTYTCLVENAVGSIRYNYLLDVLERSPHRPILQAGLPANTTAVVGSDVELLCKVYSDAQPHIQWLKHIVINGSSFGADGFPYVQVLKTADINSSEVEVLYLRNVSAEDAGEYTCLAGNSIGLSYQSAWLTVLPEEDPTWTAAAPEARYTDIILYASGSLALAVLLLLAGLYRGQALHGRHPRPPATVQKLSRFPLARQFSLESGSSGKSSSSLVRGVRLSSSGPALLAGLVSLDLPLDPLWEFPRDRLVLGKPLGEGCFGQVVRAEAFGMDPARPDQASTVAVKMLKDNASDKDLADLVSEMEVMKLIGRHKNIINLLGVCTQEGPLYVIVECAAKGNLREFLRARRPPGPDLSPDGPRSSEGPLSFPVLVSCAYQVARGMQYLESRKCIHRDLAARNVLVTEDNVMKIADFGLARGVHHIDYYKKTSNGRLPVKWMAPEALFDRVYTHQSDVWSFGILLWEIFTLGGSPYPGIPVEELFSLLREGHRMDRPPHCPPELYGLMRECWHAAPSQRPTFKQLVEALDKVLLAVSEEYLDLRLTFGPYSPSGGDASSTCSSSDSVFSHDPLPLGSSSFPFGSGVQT

[7] = biological target: T2, Serine/threonine-protein kinase BRSK1 (Homo sapiens) (UniProt Q8TDC3); assay: Residual activity of BRSK1 at 10 uM by microplate scintillation counting
T2 sequence (whole entry): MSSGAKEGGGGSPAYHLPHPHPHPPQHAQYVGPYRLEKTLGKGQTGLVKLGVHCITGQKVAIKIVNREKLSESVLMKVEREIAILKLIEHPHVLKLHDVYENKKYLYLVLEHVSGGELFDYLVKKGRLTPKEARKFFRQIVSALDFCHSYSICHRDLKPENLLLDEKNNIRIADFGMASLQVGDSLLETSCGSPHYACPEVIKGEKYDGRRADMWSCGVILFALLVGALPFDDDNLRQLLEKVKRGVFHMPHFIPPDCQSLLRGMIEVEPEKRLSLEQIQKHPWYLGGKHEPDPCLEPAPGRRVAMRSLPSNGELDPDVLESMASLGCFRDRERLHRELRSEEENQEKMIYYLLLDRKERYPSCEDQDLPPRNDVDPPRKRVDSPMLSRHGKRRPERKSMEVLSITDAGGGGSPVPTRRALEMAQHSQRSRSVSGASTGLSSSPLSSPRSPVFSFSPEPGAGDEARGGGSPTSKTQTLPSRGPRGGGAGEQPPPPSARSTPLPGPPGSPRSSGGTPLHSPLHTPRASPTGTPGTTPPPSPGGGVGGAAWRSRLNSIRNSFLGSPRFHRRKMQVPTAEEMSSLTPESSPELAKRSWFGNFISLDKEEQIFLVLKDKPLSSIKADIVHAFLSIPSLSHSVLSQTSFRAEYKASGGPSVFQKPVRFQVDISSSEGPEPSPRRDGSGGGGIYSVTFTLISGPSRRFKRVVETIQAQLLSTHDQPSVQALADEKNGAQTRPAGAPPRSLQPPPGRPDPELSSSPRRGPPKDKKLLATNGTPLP

[8] = biological target: T3, Ephrin type-A receptor 8 (Homo sapiens) (UniProt P29322); assay: Residual activity of EPHA8 at 0.1 uM by microplate scintillation counting
T3 sequence (whole entry): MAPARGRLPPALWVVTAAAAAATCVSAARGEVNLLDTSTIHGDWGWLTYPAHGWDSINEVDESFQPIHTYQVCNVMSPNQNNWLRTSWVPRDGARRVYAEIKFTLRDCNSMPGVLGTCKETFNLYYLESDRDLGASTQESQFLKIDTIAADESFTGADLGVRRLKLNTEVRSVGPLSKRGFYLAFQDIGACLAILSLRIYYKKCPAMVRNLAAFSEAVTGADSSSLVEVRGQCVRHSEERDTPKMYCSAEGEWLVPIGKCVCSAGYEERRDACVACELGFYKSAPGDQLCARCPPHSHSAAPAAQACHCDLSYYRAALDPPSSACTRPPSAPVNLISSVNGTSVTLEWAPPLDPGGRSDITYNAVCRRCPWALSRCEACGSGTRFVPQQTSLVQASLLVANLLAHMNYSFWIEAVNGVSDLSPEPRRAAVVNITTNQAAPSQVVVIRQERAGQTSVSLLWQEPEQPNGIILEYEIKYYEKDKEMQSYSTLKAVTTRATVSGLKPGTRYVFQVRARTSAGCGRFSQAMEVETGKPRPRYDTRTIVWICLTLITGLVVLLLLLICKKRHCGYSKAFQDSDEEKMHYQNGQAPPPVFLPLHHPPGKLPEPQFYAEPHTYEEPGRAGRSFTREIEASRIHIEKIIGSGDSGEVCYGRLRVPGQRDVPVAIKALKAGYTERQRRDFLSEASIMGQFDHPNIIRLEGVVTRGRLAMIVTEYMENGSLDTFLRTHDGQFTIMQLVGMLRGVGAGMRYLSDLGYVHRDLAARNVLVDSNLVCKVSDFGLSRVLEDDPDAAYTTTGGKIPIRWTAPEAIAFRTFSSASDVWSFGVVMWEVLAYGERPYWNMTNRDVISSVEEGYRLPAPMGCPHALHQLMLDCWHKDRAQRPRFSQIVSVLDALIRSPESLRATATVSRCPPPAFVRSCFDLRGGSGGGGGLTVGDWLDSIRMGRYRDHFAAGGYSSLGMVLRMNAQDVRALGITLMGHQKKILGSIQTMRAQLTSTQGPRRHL

Chain of Serine/threonine-protein kinase Chk2 (Homo sapiens) (O96017 whole entry): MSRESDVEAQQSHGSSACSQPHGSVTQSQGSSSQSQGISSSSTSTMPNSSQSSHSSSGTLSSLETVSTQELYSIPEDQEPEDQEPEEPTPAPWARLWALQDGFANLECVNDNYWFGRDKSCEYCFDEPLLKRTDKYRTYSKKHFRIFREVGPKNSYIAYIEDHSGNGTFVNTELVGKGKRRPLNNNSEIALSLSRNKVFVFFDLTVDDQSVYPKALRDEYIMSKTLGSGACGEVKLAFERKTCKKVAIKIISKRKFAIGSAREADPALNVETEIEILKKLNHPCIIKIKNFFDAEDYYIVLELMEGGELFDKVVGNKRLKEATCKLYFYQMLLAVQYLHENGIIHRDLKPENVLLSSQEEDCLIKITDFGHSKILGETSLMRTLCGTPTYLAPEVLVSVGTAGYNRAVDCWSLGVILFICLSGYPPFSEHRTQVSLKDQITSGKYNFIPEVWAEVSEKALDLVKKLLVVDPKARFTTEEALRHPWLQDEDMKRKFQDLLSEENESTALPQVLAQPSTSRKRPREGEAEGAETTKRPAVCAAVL

SMILES | residual activity [1] [%] | residual activity [2] [%] | residual activity [3] [%] | residual activity [4] [%] | residual activity [5] [%] | residual activity [6] [%] | residual activity [7] [%] | residual activity [8] [%]
COc1cc2c(Oc3ccc(-c4nc5ccccc5s4)cc3F)ncnc2cc1OCCCN1CCN(C)CC1 | 51 | 101 | 87 | 102 | 115 | 118 | 103 | 101
COc1cc2c(Oc3ccc(-c4nc5ccccc5s4)cc3)ncnc2cc1OCCCN1CCCC1 | 75 | 97 | 86 | 97 | 97 | 205 | 99 | 108
COc1cc2c(Oc3ccc(-c4nc5ccccc5s4)cc3)ncnc2cc1OCCCN1CCN(C)CC1 | 54 | 106 | 86 | 95 | 93 | 287 | 100 | 109
